Patent US12187717B2, “Compound and use thereof in treating autoimmune diseases” (PARENCHYMA BIOTECH INC., priority 2022, dated 2025)

Tested on: colitis-associated colorectal cancer (CA-CRC)
Assay: AOM/DSS colorectal cancer model, therapeutic administration
Assay type: in vivo, C57BL/6 mice
Details: 10 mg/kg oral, 50th to 63rd days (treatment)
Protocol: AOM (Sigma Aldrich, Cat No. A5486) was diluted with physiological saline so as to be a concentration of 10 mg/kg, and then administered intraperitoneally to C57BL/6 mice (8 weeks old, female, 18±2 g) by […] for a total of 3 times at an interval of 7 days (Experiment day 0, 7, 14th). On the 7th day of the experiment, a 1.5% DSS solution prepared by dissolving 1.5% DSS in sterile distilled water was given for drinking to the mice for 7 days. Further, the 1.5% DSS solution was changed at an interval of 2 days. Sterile distilled water was provided for drinking from the 8th day of the experiment. In the compound 6 administration group according to an embodiment of the present invention, 10 mg/kg of Compound 6 per mouse was completely dissolved in an ethanol-Cremophor EL mixture corresponding to 7.5% (v/v) of the administered dose, and then, was diluted in phosphate buffered saline to prepare the final ethanol:Cremophor EL:phosphate buffered saline (0.375:0.375:9.25, v/v/v), followed by oral administration with 200 μl of the prepared solution. In order to confirm the preventive effect, Compound 6 was administered for a total of 14 times from the 7th to the 20th days of the experiment. The effects of Compound 6 according to an embodiment of the present invention on treating colon cancer was confirmed. From the 50th to the 63rd days of the experiment, DSS was administered on the 7th and 14th days after AOM administration to the mice to induce colon cancer, and Compound 6 was administered 14 times from the 50th to the 63rd days. […] That is, it was confirmed that Compound 6 was effective in treating colon cancer (FIGS. 13 and 14). Therefore, it was confirmed that Compound 6 can be used as an effective preventive and therapeutic agent for colon cancer.

Question: With `O=C(Cc1c[nH]c2ccc(Cl)cc12)Nc1nc2ccc(N3CCOCC3)cc2s1` [Compound 6, 2-(5-chloro-1H-indol-3-yl)-N-(6-morpholinobenzo[d]thiazol-2-yl)acetamide] as the compound, how does the body weight (after 70 days) read?
Answer: increase in the body weight similar to that of normal mice

Question: And the number of tumors (vs control)?
Answer: significantly smaller

Question: What about the size of tumors (vs control) of the same compound?
Answer: significantly smaller
